± gives the expanded uncertainty stated by the source.
Assay: mn = molality of the nth substance listed, in mol/kg
Details: Liquid, Vibrating tube method

[Br-].[Li+] [lithium bromide] + CCO
Details | mass density [kg/m3]
353.15 K, 39784 kPa, m1 = 0.9499 | 834.79 ± 1.7
353.15 K, 39945 kPa, m1 = 2.833 | 939.73 ± 1.9
353.15 K, 39986 kPa, m1 = 0.2335 | 790.37 ± 1.6
353.15 K, 40152 kPa, m1 = 0.5972 | 813.43 ± 1.7
353.15 K, 49925 kPa, m1 = 0.9499 | 842.49 ± 1.7
353.15 K, 49993 kPa, m1 = 0.5972 | 821.26 ± 1.7
353.15 K, 59926 kPa, m1 = 0.9499 | 849.56 ± 1.8
353.15 K, 60014 kPa, m1 = 0.2335 | 805.45 ± 1.7
353.15 K, 60014 kPa, m1 = 2.833 | 952.95 ± 1.9
353.15 K, 60225 kPa, m1 = 0.5972 | 828.81 ± 1.7
353.15 K, 69845 kPa, m1 = 0.9499 | 856.11 ± 1.8
353.15 K, 69979 kPa, m1 = 0.5972 | 835.44 ± 1.8
353.15 K, 79924 kPa, m1 = 0.9499 | 862.38 ± 1.8
353.15 K, 79968 kPa, m1 = 2.833 | 964.64 ± 1.9
353.15 K, 80004 kPa, m1 = 0.2335 | 818.76 ± 1.8
353.15 K, 80139 kPa, m1 = 0.5972 | 841.77 ± 1.8
353.15 K, 90021 kPa, m1 = 0.9499 | 868.33 ± 1.8
353.15 K, 99895 kPa, m1 = 2.833 | 975.38 ± 2
353.15 K, 99925 kPa, m1 = 0.9499 | 873.94 ± 1.9
353.15 K, 99987 kPa, m1 = 0.2335 | 829.93 ± 1.8
353.16 K, 1827 kPa, m1 = 2.272 | 878.19 ± 1.8
353.16 K, 2037 kPa, m1 = 0.5972 | 777.89 ± 1.6
353.16 K, 5076 kPa, m1 = 2.272 | 881.19 ± 1.8
353.16 K, 30024 kPa, m1 = 2.833 | 932.51 ± 1.9
353.16 K, 50031 kPa, m1 = 0.2335 | 798.55 ± 1.7
353.16 K, 69784 kPa, m1 = 2.833 | 958.82 ± 1.9
353.16 K, 89993 kPa, m1 = 0.5972 | 847.35 ± 1.8
353.17 K, 10149 kPa, m1 = 0.5972 | 786.15 ± 1.6
353.17 K, 70025 kPa, m1 = 0.2335 | 812.93 ± 1.7
353.18 K, 100098 kPa, m1 = 0.5972 | 852.48 ± 1.8
353.2 K, 79893 kPa, m1 = 3.368 | 991.32 ± 2
353.2 K, 89986 kPa, m1 = 3.368 | 996.68 ± 2
353.2 K, 99526 kPa, m1 = 3.368 | 1001.5 ± 2
353.21 K, 1063 kPa, m1 = 3.368 | 935.92 ± 1.9
353.21 K, 4909 kPa, m1 = 3.368 | 939.35 ± 1.9
353.21 K, 10311 kPa, m1 = 3.368 | 944.02 ± 1.9
353.21 K, 30003 kPa, m1 = 3.368 | 959.64 ± 1.9
353.21 K, 40073 kPa, m1 = 3.368 | 966.87 ± 1.9
353.21 K, 49925 kPa, m1 = 3.368 | 973.5 ± 1.9
353.21 K, 59786 kPa, m1 = 3.368 | 979.72 ± 2
353.21 K, 69928 kPa, m1 = 3.368 | 985.74 ± 2
353.22 K, 19643 kPa, m1 = 3.368 | 951.68 ± 1.9
373.11 K, 79585 kPa, m1 = 2.272 | 924.75 ± 1.9
373.12 K, 2208 kPa, m1 = 3.368 | 920.02 ± 1.8
373.12 K, 5044 kPa, m1 = 3.368 | 922.8 ± 1.9
373.12 K, 19844 kPa, m1 = 3.368 | 936.43 ± 1.9
373.12 K, 59597 kPa, m1 = 2.272 | 911.69 ± 1.9
373.12 K, 69993 kPa, m1 = 2.272 | 918.69 ± 1.9
373.13 K, 10014 kPa, m1 = 3.368 | 927.55 ± 1.9
373.13 K, 20555 kPa, m1 = 0.5972 | 780.15 ± 1.6
373.13 K, 69957 kPa, m1 = 0.2335 | 799.09 ± 1.7
373.14 K, 2369 kPa, m1 = 1.462 | 814.46 ± 1.6
373.14 K, 2757 kPa, m1 = 0.5972 | 759.44 ± 1.5
373.14 K, 10024 kPa, m1 = 0.2335 | 743.18 ± 1.5
373.14 K, 10201 kPa, m1 = 0.5972 | 767.99 ± 1.6
373.14 K, 29963 kPa, m1 = 3.368 | 944.93 ± 1.9
373.14 K, 29993 kPa, m1 = 0.5972 | 788.87 ± 1.6
373.14 K, 39934 kPa, m1 = 3.368 | 952.72 ± 1.9
373.14 K, 49924 kPa, m1 = 3.368 | 960.01 ± 1.9
373.14 K, 60080 kPa, m1 = 3.368 | 966.95 ± 1.9
373.14 K, 69925 kPa, m1 = 3.368 | 973.28 ± 2
373.14 K, 79738 kPa, m1 = 0.5972 | 829.02 ± 1.8
373.14 K, 80004 kPa, m1 = 0.2335 | 806.27 ± 1.8
373.14 K, 80063 kPa, m1 = 3.368 | 979.45 ± 2
373.14 K, 89993 kPa, m1 = 3.368 | 985.2 ± 2
373.14 K, 89994 kPa, m1 = 2.272 | 930.92 ± 1.9
373.14 K, 99876 kPa, m1 = 3.368 | 990.71 ± 2
373.15 K, 1026 kPa, m1 = 0.9499 | 780.35 ± 1.6
373.15 K, 1235 kPa, m1 = 0.2335 | 732.64 ± 1.5
373.15 K, 1415 kPa, m1 = 2.833 | 892.25 ± 1.8
373.15 K, 5002 kPa, m1 = 2.833 | 895.82 ± 1.8
373.15 K, 5004 kPa, m1 = 0.2335 | 737.23 ± 1.5
373.15 K, 5019 kPa, m1 = 1.462 | 817.48 ± 1.6
373.15 K, 5412 kPa, m1 = 0.9499 | 785.62 ± 1.6
373.15 K, 10004 kPa, m1 = 2.833 | 900.66 ± 1.8
373.15 K, 10068 kPa, m1 = 0.9499 | 790.99 ± 1.6
373.15 K, 19935 kPa, m1 = 0.9499 | 801.67 ± 1.6
373.15 K, 19957 kPa, m1 = 2.833 | 909.82 ± 1.8
373.15 K, 19985 kPa, m1 = 0.2335 | 754.93 ± 1.5
373.15 K, 29956 kPa, m1 = 2.833 | 918.4 ± 1.8
373.15 K, 29974 kPa, m1 = 0.9499 | 811.66 ± 1.6
373.15 K, 39236 kPa, m1 = 0.9499 | 820.14 ± 1.7
373.15 K, 39984 kPa, m1 = 2.833 | 926.44 ± 1.9
373.15 K, 40001 kPa, m1 = 0.2335 | 774.75 ± 1.6
373.15 K, 49979 kPa, m1 = 2.272 | 904.77 ± 1.8
373.15 K, 50002 kPa, m1 = 2.833 | 933.93 ± 1.9
373.15 K, 50023 kPa, m1 = 0.9499 | 829.23 ± 1.7
373.15 K, 59924 kPa, m1 = 2.833 | 940.87 ± 1.9
373.15 K, 59926 kPa, m1 = 0.9499 | 836.92 ± 1.7
373.15 K, 59977 kPa, m1 = 1.462 | 867.61 ± 1.8
373.15 K, 59987 kPa, m1 = 0.2335 | 791.31 ± 1.7
373.15 K, 69784 kPa, m1 = 2.833 | 947.33 ± 1.9
373.15 K, 69895 kPa, m1 = 0.9499 | 844.11 ± 1.8
373.15 K, 69979 kPa, m1 = 1.462 | 874.66 ± 1.8
373.15 K, 69994 kPa, m1 = 0.5972 | 822.13 ± 1.7
373.15 K, 79936 kPa, m1 = 0.9499 | 850.88 ± 1.8
373.15 K, 80021 kPa, m1 = 2.833 | 953.61 ± 1.9
373.15 K, 89926 kPa, m1 = 2.833 | 959.33 ± 1.9
373.15 K, 89934 kPa, m1 = 0.5972 | 835.63 ± 1.8
373.15 K, 89945 kPa, m1 = 0.9499 | 857.23 ± 1.8
373.15 K, 89956 kPa, m1 = 0.2335 | 812.23 ± 1.8
373.15 K, 99845 kPa, m1 = 2.833 | 964.74 ± 2
373.15 K, 99866 kPa, m1 = 0.5972 | 840.98 ± 1.8
373.15 K, 99874 kPa, m1 = 0.2335 | 817.91 ± 1.8
373.15 K, 99968 kPa, m1 = 0.9499 | 863.3 ± 1.9
